Reference: patent EP0833899B1, “CIS-9,10-OCTADECENOAMIDASE” (THE SCRIPPS RESEARCH INSTITUTE, priority 1995, dated 1996)
Where two headings read alike, the source gives them in different places.

Tests used:
rats = assay: effect on spontaneous behavior (sleep induction) after ip injection; assay type: in vivo
Experimental: Synthetic cis-9,10-octadecenoamide was injected (ip) into rats in order to test its effect on spontaneous behavior at different doses: 1 (n=2), 2 (n=2), 5 (n=7), 10 (n=10), 20 (n=2), and 50 (n=2) mg, where n = number of rats tested. […] However, at a threshold of 5 mg and above there was a marked effect consisting of an induction of long-lasting motor quiescence associated with eyes closed, sedated behavior characteristic of normal sleep. Also as with normal sleep, the rats still responded to auditory stimuli with orienting reflex and sustained attention toward the source of stimulation. In addition, motor behavior was impaired. The latency to behavioral sedation following administration was about 4 minutes and subjects were normally active again after 1 hour (5 mg), 2 hour (10 mg), or 2.5 hour (20 mg and 50 mg).
(§1) We have compared cis-9,10-octadecenoamide to vehicle and the synthetic analogs listed in Figure 1 to estimate the structural specificity of its sleep-inducing potential. […] More particularly, male Sprague-Dawley rats (300 g at the time of surgery) were implanted under halothane anesthesia (2-3%) with a standard set of electrodes for sleep recordings. This included two screw electrodes placed in the parietal bone over the hippocampus to record the subjects electroencephalogram (EEG) and two wire electrodes inserted in the neck musculature to record postural tone through electromyographic activity (EMG). Rats were housed individually with at libitum access to food and water. The dark-light cycle was controlled (12:12, lights on a 10:00 p.m.). One week after the surgery, rats were habituated to the recording conditions for at least three days. Upon the completion of the habituation period, rats received 2 milliliter (ip) of either: vehicle (5% ethanol/saline solution), cis-9,10-octadecenoamide (10 mg), or oleic acid (10 mg). […] Sleep recordings were visually scored and four stages were determined: wakefulness, slow-wave-sleep 1 (SWS1), slow-wave-sleep 2 (SWS2), and rapid eye movement (REM) sleep.

male Sprague-Dawley rats = assay: polysomnographic sleep recordings (EEG/EMG) after ip injection; assay type: in vivo; settings: 10 mg ip, compared to vehicle controls, recorded four hours
Excerpt: as §1
These increases with respect to slow wave sleep (SWS) were at the expense of waking.

[1] = molecular target: T1, cis-9,10-octadecenoamidase, rat brain membrane fraction (Rattus norvegicus, UniProt P97612); assay type: biochemical; settings: 1 mM inhibitor, 1000 µM
T1 sequence (P97612 1-579): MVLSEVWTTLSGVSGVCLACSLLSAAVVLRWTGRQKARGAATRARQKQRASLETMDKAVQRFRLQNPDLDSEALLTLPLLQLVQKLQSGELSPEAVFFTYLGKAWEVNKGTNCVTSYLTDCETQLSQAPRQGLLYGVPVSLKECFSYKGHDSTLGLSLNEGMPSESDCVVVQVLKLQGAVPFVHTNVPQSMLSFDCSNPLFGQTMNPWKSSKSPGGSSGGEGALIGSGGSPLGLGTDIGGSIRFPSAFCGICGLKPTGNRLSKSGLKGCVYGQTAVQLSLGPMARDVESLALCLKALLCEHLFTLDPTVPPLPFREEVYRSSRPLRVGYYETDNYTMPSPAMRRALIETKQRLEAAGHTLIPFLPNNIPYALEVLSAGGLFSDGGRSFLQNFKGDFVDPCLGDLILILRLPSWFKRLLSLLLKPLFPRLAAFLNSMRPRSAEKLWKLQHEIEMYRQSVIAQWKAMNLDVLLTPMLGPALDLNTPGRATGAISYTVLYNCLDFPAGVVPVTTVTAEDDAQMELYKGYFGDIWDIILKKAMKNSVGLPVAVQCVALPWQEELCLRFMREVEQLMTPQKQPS
Experimental: In each case the enzymic reaction is performed is a separate reaction vessel and the product is spotted onto a TLC plate.
The following protocol is used for assaying cis-9,10-octadecenoamide hydrolysis activity: To […] of 125 mM Tris·HCl, pH 9.0 was added successively 70 mL protein fraction (1 mg/mL protein concentration for brain membrane fraction, 2 mg/mL for brain soluble fraction, 5 mg/mL for pancreatic microsomal preparation), 6 mL of ethanol, and 4 mL of ^14C-cis-9,10-octadecenoamide (in ethanol, 0.25 mCi/mL). Each reaction mixture is incubated for 4 hours at 37°C and then partitioned between EtOAc and 0.07 M HCl. The EtOAc layer is evaporated to dryness and the remaining residue is dissolved in 15 mL ethanol. TLC fractions are taken from this ethanol stock. TLC plates are treated with EN^3HANCE spray and developed at -78°C for 2 hours.

[2] = molecular target: T2, amidase activity which catalyzes both the hydrolysis and synthesis of arachidonylethanolamide (anandamide), membrane subcellular fractions from neuroblastoma, g (Rattus norvegicus, UniProt P97612); settings: 1.5 mM concentration; cited from earlier work
T2 sequence (P97612 1-579): T1 sequence (P97612 1-579)

**Q.** Which overt behavioral effect (rats; rats, compared with cis-9,10-octadecenoamide) does the source give for CCCCCCCC/C=C\CCCCCCCC(=O)O [oleic acid, Oleic acid, reference compound] here?
**A.** The overt behavioral effect was “nor oleic acid (5) showed any overt behavioral effect”.

**Q.** For CCCCCC/C=C\CCCCCCCCCC(N)=O [Compound 4, Cis-11,12-octadecenoamide], which “pharmacological effects compared with cis-9,10-octadecenoamide” value (rats; rats) is on record?
**A.** The value was “substantial reduction in both the degree and duration of the pharmacological effects”.

**Q.** For CCCCCCCCC/C=C\CCCCCCC(N)=O [Compound 3, Cis-8,9-octadecenoamide], which “pharmacological effects compared with cis-9,10-octadecenoamide” value (rats; rats) is on record?
**A.** The value was “substantial reduction in both the degree and duration of the pharmacological effects”.

**Q.** For CCCCCCCC/C=C\CCCCCCCCCCCC(N)=O [Compound 6, Erucamide], which “pharmacological effects compared with cis-9,10-octadecenoamide” value (rats; rats) is on record?
**A.** The value was “substantial reduction in both the degree and duration of the pharmacological effects”.

**Q.** With CCCCCCCC/C=C\CCCCCCCC(N)=O [cis-9,10-octadecenoamide, Cis-9,10-octadecenoamide] as the compound, how does the “mean duration of the SWS individual periods” value (male Sprague-Dawley rats) read?
**A.** The value was “increase”.

**Q.** And the “total time of slow wave sleep (SWS)” value (male Sprague-Dawley rats)?
**A.** Its value is “increase”.

**Q.** What about the “time after which subjects were normally active again” value (rats; 5 mg ip, rats) of the same compound?
**A.** The value was 1 h.

**Q.** And the “time after which subjects were normally active again” value (rats; 10 mg ip, rats)?
**A.** The value was 2 h.

**Q.** And the “duration of the biological effect (sleep-inducing properties)” value (rats; 10 mg per rat)?
**A.** The value was “two”.

**Q.** And the “time after which subjects were normally active again” value (rats; 20 mg ip, rats)?
**A.** The value was 2.5 h.

**Q.** What about the “time after which subjects were normally active again” value (rats; 50 mg ip, rats) of the same compound?
**A.** The value was 2.5 h.

**Q.** What about the “latency to behavioral sedation following administration” value (rats; ip, rats) of the same compound?
**A.** The value was “about 4 minutes”.

**Q.** And the “threshold dose for induction of long-lasting motor quiescence, sedated behavior characteristic of normal sleep” value (rats; ip, rats)?
**A.** Its value is 5 mg.

**Q.** And the “effect on spontaneous behavior” value (rats; lower doses (1 and 2 mg), ip, rats)?
**A.** The value was “no overt effect on spontaneous behavior”.

**Q.** With O=S(=O)(F)Cc1ccccc1 [phenylmethylsulfonyl fluoride] as the compound, how does the “inhibition of enzymatic activity (hydrolysis of cis-9,10-octadecenoamide to oleic acid)” value [1] read?
**A.** Its value is “completely inhibited”.

**Q.** What about the “inhibition of enzymatic activity (hydrolysis of cis-9,10-octadecenoamide to oleic acid)” value ([1]; listed as PMSF) of the same compound?
**A.** The value was “inhibited”.

**Q.** And the “inhibition of the amidase activity (anandamide hydrolysis)” value [2]?
**A.** Its value is “completely inhibited”.
